Experimental findings from ChEMBL document CHEMBL1145687, “Cochliobolic acid, a novel metabolite produced by Cochliobolus lunatus, inhibits binding of TGF-alpha to the EGF receptor in a SPA assay” (J Nat Prod, 1997) are described below.

For this test, the target named is Epidermal growth factor receptor (Homo sapiens, UniProt P00533). Briefly: Displacement of [125I]-TGFalpha from human EGFR in human A431 cell membrane by SPA. Format: cell membranes, A-431.
Epidermal growth factor receptor, sequence (P00533 whole entry): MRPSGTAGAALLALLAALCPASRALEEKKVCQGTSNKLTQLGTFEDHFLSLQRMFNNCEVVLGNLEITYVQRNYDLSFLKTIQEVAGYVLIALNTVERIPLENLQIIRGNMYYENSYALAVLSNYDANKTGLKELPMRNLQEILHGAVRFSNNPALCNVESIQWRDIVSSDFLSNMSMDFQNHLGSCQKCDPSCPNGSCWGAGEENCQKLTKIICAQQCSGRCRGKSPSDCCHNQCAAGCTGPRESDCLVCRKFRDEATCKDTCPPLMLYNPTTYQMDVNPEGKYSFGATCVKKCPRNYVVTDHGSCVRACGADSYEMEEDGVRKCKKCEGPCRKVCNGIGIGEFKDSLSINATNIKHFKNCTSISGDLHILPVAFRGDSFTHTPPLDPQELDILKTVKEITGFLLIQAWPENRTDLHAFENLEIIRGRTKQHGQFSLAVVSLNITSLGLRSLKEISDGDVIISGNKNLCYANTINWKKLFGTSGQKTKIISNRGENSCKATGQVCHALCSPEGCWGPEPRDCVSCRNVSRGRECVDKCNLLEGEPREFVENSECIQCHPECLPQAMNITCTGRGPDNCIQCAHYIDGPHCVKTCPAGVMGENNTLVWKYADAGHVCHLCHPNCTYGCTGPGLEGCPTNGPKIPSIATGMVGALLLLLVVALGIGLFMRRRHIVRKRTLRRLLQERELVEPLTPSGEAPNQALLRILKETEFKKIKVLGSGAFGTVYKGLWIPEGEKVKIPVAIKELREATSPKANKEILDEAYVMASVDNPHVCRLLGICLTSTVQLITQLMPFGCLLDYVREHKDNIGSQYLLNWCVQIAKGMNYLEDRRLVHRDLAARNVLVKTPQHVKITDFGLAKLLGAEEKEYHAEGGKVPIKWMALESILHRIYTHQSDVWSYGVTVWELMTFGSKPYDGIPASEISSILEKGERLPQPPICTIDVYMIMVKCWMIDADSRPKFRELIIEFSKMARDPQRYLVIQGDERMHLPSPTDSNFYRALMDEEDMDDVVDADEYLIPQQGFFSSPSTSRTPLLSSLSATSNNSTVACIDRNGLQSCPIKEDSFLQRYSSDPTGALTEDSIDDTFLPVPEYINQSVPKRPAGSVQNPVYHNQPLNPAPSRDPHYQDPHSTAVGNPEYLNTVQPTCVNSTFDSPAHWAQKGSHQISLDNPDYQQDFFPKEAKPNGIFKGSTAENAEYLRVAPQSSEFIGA

`CCC(C)/C=C/C(=O)C(=O)/C=C/C=C/C=C/C=C/C=C/C=C/[C@@H]1C[C@@H](O)[C@H](C(=O)O)O1` (stereo partly specified) [COCHLIOBOLIC ACID] displayed an IC50 of 1600 nM.
